Entries after “also recorded” stand apart in the source; their conditions may differ.
How the values were obtained:
[1] = tested on: 5-HT receptor; assay: 5-HTP accumulation (5-HT synthesis rate) in non-pretreated rats after NSD 1015; format: in vivo, rat (male Sprague-Dawley)
Method: observations are commented to the right. After the session the rats were
accumulation in the NErich cortical regions and 5HTP in the limbic
Injection volumes were 5 mL/kg.

[2] = tested on: striatal DA release; assay: In vivo brain microdialysis in rat striatum (conscious rats); settings: for Microdialysis in rat striatum, 5-HIAA / Microdialysis in rat striatum, DA / Microdialysis in rat striatum, DOPAC / Microdialysis in rat striatum, HVA: 50 μmol/kg s.c.
Method: (§1) In the experiments with habituated rats no NSD was administered and the animals were killed one hour after drug administration. […] The levels were expressed as % of controls (DOPAC and 5-HIAA see Table 3). The in vivo brain microdialysis experiments were performed in conscious rats as described by Waters et al., Eur. J. Pharm., 187, 425-34 (1990).
The dialysis was performed in conscious rats implanted with a dialysis probe (Carnegie Medicin, Stockholm) in the caudate. […] The perfusion media was a Ringer solution with a Ca2+ concentration of 1.2 mM. The perfusion rate was 2.0 μL/min and samples were collected every 20 minutes and analyzed on HPLC/EC. Data are expressed as % of controls, means ±SEM, n=4.

[3] = tested on: dopamine autoreceptors; assay: GBL-model (DA synthesis rate; presynaptic dopamine autoreceptors); format: in vivo, rat
Description: The effects on DOPA accumulation in the GBL-model is considered to reflect an event at the presynaptic dopamine autoreceptors (for further details, see Svensson et al., Nunyn-Schmiedeberg's Arch. Pharm., 334, 234(1986)).

[4] = tested on: 5-HT receptor; assay: 5-HT metabolism (5-HIAA levels) in habituated rats; format: in vivo, rat (male Sprague-Dawley); settings: Table 3
Method: Footnotes Table 3. The rats were habituated to the motility meters 60 min
SEM. The rats were immediately killed after the activity session, striata
and limbic levels of DOPAC and 5HIAA were measured by means of HPLCEC. *p
as §1
Injection volumes were 5 mL/kg. […]

Compound: CCCN1CCC[C@@H](c2cccc(C#N)c2)C1 [S-(-)-34, S-(-)-3-(3-Cyanophenyl-N-n-propyl)piperidine]
- brain 5-HTP formation, elevation ([1]; 25 μmol/kg, sc and above): 45-50%
- 5-HTP acc Limbic Region ([1]; 50 sc): 144 ± 6 % of saline controls
- 5-HTP acc Limbic Region ([1]; 100 sc): 148 ± 10 % of saline controls
- 5-HTP acc Limbic Region ([1]; 200 sc): 80 ± 12 % of saline controls
- brain 5-HTP levels (in words) ([1]; non-pretreated rats): elevated brain 5-HTP levels
- Microdialysis in rat striatum, 5-HIAA ([2]; 0 min): 100 % of control
- Microdialysis in rat striatum, DA ([2]; 0 min): 100 % of control
- Microdialysis in rat striatum, DOPAC ([2]; 0 min): 100 % of control
- Microdialysis in rat striatum, HVA ([2]; 0 min): 100 % of control
- Microdialysis in rat striatum, 5-HIAA ([2]; 20 min): 110 % of control
- Microdialysis in rat striatum, DA ([2]; 20 min): 180 % of control
- Microdialysis in rat striatum, DOPAC ([2]; 20 min): 180 % of control
- Microdialysis in rat striatum, HVA ([2]; 20 min): 140 % of control
- Microdialysis in rat striatum, 5-HIAA ([2]; 40 min): 115 % of control
- Microdialysis in rat striatum, DA ([2]; 40 min): 240 % of control
- Microdialysis in rat striatum, DOPAC ([2]; 40 min): 250 % of control
- Microdialysis in rat striatum, HVA ([2]; 40 min): 200 % of control
- Microdialysis in rat striatum, 5-HIAA ([2]; 60 min): 120 % of control
- Microdialysis in rat striatum, DA ([2]; 60 min): 280 % of control
- Microdialysis in rat striatum, DOPAC ([2]; 60 min): 295 % of control
- Microdialysis in rat striatum, HVA ([2]; 60 min): 250 % of control
- Microdialysis in rat striatum, 5-HIAA ([2]; 80 min): 115 % of control
- Microdialysis in rat striatum, DA ([2]; 80 min): 300 % of control
- Microdialysis in rat striatum, DOPAC ([2]; 80 min): 300 % of control
- Microdialysis in rat striatum, HVA ([2]; 80 min): 280 % of control
- Microdialysis in rat striatum, 5-HIAA ([2]; 100 min): 115 % of control
- Microdialysis in rat striatum, DA ([2]; 100 min): 280 % of control
- Microdialysis in rat striatum, DOPAC ([2]; 100 min): 295 % of control
- Microdialysis in rat striatum, HVA ([2]; 100 min): 300 % of control
- Microdialysis in rat striatum, 5-HIAA ([2]; 120 min): 110 % of control
- Microdialysis in rat striatum, DA ([2]; 120 min): 275 % of control
- Microdialysis in rat striatum, DOPAC ([2]; 120 min): 280 % of control
- Microdialysis in rat striatum, HVA ([2]; 120 min): 310 % of control
- Microdialysis in rat striatum, 5-HIAA ([2]; 140 min): 105 % of control
- Microdialysis in rat striatum, DA ([2]; 140 min): 225 % of control
- Microdialysis in rat striatum, DOPAC ([2]; 140 min): 260 % of control
- Microdialysis in rat striatum, HVA ([2]; 140 min): 300 % of control
- Microdialysis in rat striatum, 5-HIAA ([2]; 160 min): 110 % of control
- Microdialysis in rat striatum, DA ([2]; 160 min): 200 % of control
- Microdialysis in rat striatum, DOPAC ([2]; 160 min): 250 % of control
- Microdialysis in rat striatum, HVA ([2]; 160 min): 305 % of control
- Microdialysis in rat striatum, 5-HIAA ([2]; 180 min): 110 % of control
- Microdialysis in rat striatum, DA ([2]; 180 min): 190 % of control
- Microdialysis in rat striatum, DOPAC ([2]; 180 min): 230 % of control
- Microdialysis in rat striatum, HVA ([2]; 180 min): 280 % of control
- Microdialysis in rat striatum, 5-HIAA ([2]; 200 min): 110 % of control
- Microdialysis in rat striatum, DA ([2]; 200 min): 180 % of control
- Microdialysis in rat striatum, DOPAC ([2]; 200 min): 215 % of control
- Microdialysis in rat striatum, HVA ([2]; 200 min): 220 % of control
- Microdialysis in rat striatum, 5-HIAA ([2]; 220 min): 100 % of control
- Microdialysis in rat striatum, DA ([2]; 220 min): 160 % of control
- Microdialysis in rat striatum, DOPAC ([2]; 220 min): 190 % of control
- Microdialysis in rat striatum, HVA ([2]; 220 min): 230 % of control
- duration for the increase in DOPAC and HVA ([2]; 50 μmol/kg, sc): at least 4 hours
- duration of the effect (DA release) ([2]; 50 μmol/kg, sc): approximately 2.5 hours
- levels of 5-HIAA, microdialysis (in words) ([2]; 50 μmol/kg, sc): No consistent changes in the levels of 5-HIAA; also recorded: failed to affect brain levels of 5-HIAA
- blockade of the apomorphine effect in the GBL-model ([3]; 100 μmol/kg, sc): only a partial blockade
- effect per se in the GBL-model ([3]; 200 μmol/kg, sc): inactive per se
- blockade of the apomorphine effect in the GBL-model ([3]; 200 μmol/kg, sc, 40 minutes): blocked the effect of apomorphine
- blockade of apomorphine in the GBL-model (in words) ([3]; rat, in vivo): blocks apomorphine in the GBL-model
- brain 5-HIAA levels (in words) [4]: no statistical significant effects; also recorded: No effects on the brain levels of 5-HIAA; also recorded: failed to affect brain levels of 5-HIAA

From patent US5594024A, “Centrally actig substituted phenylazacycloalkanes” (priority 1995, dated 1997)
